Data: patent US20180177706A1, “COMPOSITIONS CONTAINING HYALURONIC ACID AND SYNERGISTIC ANTI-HYALURONIDASE ACTIVES” (L'OREAL, priority 2016, published 2018)

Key:
hyaluronidase (HAase) = test: in vitro dose screening assay of HAase inhibitors; assay type: biochemical
Description: Antioxidants having known hyaluronidase inhibition properties were tested in vitro to establish baseline inhibition. Referring now to the drawings, selected results are shown in the table of FIG. 1, with the known HAase inhibitor Apigenin as a positive control.

HAase [1] = test: HA gel model of HAase inhibition-based kinetic viscoelastic profile measurement; assay type: biochemical
Description: Hyaluronidase inhibition activity was evaluated in a HA gel model of HAase inhibition-based kinetic viscoelastic profile measurement. According to the experimental design, various individual controls and known HAase inhibitors were tested (alone and in combination). In this model, HAase was introduced into a gel composed of HA. Upon exposure, the HAase decomposes the HA gel in a time dependent manner which is directly correlated to the viscosity of the HA gel. Test compounds were introduced to the HA gel system and degree of HAase inhibition as gauged by measuring viscosity (change in viscosity) over time.
At each time point, % of Viscosity Loss is compared to the viscosity of HA gel without enzyme.
To describe the synergy clearly, the “inhibition factor,” below, reflects the extent of inhibition of HAase activity, where n=viscosity: […]

[2] = solubility / formulation observation; assay type: physicochemical
HAase [3] = conditions: stated as known; cited from earlier work

inhibition of HAase (in words) (hyaluronidase (HAase); concentration of 0.05 mg/mL)	dose effect on HAase inhibition (hyaluronidase (HAase); up to testing dose of 0.5 mg/ml)	inhibition of hyaluronidase in gel model (in words) (HAase [1])	inhibition of HAase (in words) (hyaluronidase (HAase); in vitro assay)	solubility (in words) [2]	SMILES	inhibition of HAase (known) (HAase [3])
mild inhibitors	no clear dose effect	very mild effect			CC1(C)[C@@H](O[C@H]2O[C@H](C(=O)[O-])[C@@H](O)[C@H](O)[C@H]2O[C@@H]2O[C@H](C(=O)[O-])[C@@H](O)[C@H](O)[C@H]2O)CC[C@]2(C)[C@H]3C(=O)C=C4[C@@H]5C[C@@](C)(C(=O)O)CC[C@]5(C)CC[C@@]4(C)[C@]3(C)CC[C@@H]12.[K+].[K+] [dipotassium glycyrrhizate]	
			very potent inhibitor	highly insoluble	O=C(OC[C@H]1O[C@@H](OC(=O)c2cc(O)c(O)c(OC(=O)c3cc(O)c(O)c(O)c3)c2)[C@H](OC(=O)c2cc(O)c(O)c(OC(=O)c3cc(O)c(O)c(O)c3)c2)[C@@H](OC(=O)c2cc(O)c(O)c(OC(=O)c3cc(O)c(O)c(O)c3)c2)[C@@H]1OC(=O)c1cc(O)c(O)c(OC(=O)c2cc(O)c(O)c(O)c2)c1)c1cc(O)c(O)c(OC(=O)c2cc(O)c(O)c(O)c2)c1 [tannic acid]	super-efficient inhibitor
